Here are results for 21 compounds from patent US8772480B2, “Inhibitors of PI3 kinase and/or mTOR” (priority 2009, dated 2014).

Read-outs that look alike come from different tables or passages of the source.

Test [1] addresses T1, PI3Kα (Homo sapiens (Human), UniProt P42336). As to conditions: read-out: PI3Kα AlphaScreen ® Ki.
Test [2] relates to phosphorylation of Akt at Serine 473 in U87 MG cells. The conditions noted are these: read-out: U87Cell IC50.
Procedure: pAkt Aplhascreen (U87 Cell)
(§1) This assay was performed using U87 MG cells. […] The cells were maintained weekly using 0.05% Trypsin (Gibco) and replated in 150 mm TC—Treated Culture Dishes (Corning, Corning, N.Y.).
(§2) The first day of the assay, the adherent cells were trypsinized, media was added to the loose cells and cells were mixed to a homogenous mixture. 0.5 ml of the homogenous mixture was counted on the Beckman Coulter® Vi-CELL™ XR (Fullerton, Calif.). 50 frames of cells were counted and the number of viable cells was determined. The cells were then diluted to 0.25 million cells per ml, and centrifuged at 200 rcf for 5 minutes. The media was removed and the cells were reconstituted in fresh media for plating. The cells were plated at 20 μl per well on the PerkinElmer® FlexDrop PLUS in Low Volume 384 Well White Tissue Culture Plates (Corning) with a final cell density of 5K cells per well. The plates were incubated overnight at 37° Celsius, 5% CO2.
(§3) After two hours, the media in the cell plates was aspirated using the BioTek® ELx405HT plate washer (Winooski, Vt.) removing the majority of media and compound without disturbing the adherent U87 cells. […] The plates were then incubated at room temperature on a shaker for ten minutes. […] The AlphaScreen® reaction was added to the cell lysate at 6 μl per well using the PerkinElmer® FlexDrop PLUS. The plates were placed in a humid environment to reduce edge effects and incubated overnight at room temperature with restricted air flow in the dark.
The target of test [3] is T1, PI3Kα. As to the kind of experiment: biochemical. The conditions noted are these: PI3Kα AlphaScreen ® Ki.
The subject of test [4] is phosphorylation of Akt at Serine 473 in U87 MG cells. As to the kind of experiment: cells. As to conditions: Homo sapiens, U-87 MG, 2 h, read-out: U87Cell IC50, pAkt (Ser 473), U87 MG cells, two hours with compound.
Procedure: pAkt Aplhascreen (U87 Cell)
as §1, §2, §3
Test [5] deals with human mutant B-raf (HuBraf V600E) (Homo sapiens (Human), UniProt P15056, V600E). As to conditions: at 10 μM compound concentration; POC = 100 − percent inhibition.
human mutant B-raf (HuBraf V600E), sequence (P15056 whole entry V600E): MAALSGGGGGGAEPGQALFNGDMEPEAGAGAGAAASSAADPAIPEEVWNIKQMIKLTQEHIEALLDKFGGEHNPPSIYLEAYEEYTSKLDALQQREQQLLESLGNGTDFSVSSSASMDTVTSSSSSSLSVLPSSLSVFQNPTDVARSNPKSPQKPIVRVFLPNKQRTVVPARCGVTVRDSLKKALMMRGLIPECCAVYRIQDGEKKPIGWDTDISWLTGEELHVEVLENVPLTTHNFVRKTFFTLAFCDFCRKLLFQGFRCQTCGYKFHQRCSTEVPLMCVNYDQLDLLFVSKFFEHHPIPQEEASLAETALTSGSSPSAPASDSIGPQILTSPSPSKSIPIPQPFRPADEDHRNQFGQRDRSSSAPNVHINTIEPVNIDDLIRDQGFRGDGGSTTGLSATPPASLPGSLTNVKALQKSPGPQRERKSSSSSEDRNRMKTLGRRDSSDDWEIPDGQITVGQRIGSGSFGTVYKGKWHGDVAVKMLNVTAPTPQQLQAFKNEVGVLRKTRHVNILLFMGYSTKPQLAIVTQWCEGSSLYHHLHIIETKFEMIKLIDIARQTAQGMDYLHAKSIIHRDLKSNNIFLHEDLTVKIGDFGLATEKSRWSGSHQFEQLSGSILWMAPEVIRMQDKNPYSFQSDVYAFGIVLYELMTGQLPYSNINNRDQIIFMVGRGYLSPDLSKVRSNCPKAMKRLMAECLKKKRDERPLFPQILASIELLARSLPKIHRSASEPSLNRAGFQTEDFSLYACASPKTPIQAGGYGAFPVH

T1 sequence (P42336 whole entry): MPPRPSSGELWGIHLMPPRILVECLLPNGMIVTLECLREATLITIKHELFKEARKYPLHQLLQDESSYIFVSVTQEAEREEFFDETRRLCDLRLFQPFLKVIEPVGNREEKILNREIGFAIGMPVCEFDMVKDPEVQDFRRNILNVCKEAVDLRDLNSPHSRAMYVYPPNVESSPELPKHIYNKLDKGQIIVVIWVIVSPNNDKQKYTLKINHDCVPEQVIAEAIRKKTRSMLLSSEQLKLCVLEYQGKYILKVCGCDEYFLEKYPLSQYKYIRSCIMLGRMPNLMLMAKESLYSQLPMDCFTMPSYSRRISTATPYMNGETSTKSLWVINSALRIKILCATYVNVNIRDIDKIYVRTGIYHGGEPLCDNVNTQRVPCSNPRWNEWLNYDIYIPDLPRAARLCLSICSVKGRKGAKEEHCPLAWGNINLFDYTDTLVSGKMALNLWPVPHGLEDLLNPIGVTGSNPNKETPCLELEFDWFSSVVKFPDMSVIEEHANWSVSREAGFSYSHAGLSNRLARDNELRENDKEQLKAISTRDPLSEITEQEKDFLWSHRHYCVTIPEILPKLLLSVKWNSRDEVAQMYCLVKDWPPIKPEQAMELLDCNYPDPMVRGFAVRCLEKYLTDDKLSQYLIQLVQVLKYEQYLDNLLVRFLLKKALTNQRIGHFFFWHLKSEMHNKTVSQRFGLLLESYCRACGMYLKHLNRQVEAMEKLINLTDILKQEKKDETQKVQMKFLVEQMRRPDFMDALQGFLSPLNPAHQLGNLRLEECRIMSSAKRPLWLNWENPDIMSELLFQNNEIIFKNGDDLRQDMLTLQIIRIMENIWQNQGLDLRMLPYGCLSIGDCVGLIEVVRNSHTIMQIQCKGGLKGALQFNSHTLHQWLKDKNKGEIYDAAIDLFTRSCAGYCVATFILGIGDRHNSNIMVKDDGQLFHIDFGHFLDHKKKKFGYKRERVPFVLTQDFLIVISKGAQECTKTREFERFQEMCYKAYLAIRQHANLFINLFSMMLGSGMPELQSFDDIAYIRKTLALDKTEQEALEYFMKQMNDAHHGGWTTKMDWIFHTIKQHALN
T1 sequence (P27986 whole entry partner): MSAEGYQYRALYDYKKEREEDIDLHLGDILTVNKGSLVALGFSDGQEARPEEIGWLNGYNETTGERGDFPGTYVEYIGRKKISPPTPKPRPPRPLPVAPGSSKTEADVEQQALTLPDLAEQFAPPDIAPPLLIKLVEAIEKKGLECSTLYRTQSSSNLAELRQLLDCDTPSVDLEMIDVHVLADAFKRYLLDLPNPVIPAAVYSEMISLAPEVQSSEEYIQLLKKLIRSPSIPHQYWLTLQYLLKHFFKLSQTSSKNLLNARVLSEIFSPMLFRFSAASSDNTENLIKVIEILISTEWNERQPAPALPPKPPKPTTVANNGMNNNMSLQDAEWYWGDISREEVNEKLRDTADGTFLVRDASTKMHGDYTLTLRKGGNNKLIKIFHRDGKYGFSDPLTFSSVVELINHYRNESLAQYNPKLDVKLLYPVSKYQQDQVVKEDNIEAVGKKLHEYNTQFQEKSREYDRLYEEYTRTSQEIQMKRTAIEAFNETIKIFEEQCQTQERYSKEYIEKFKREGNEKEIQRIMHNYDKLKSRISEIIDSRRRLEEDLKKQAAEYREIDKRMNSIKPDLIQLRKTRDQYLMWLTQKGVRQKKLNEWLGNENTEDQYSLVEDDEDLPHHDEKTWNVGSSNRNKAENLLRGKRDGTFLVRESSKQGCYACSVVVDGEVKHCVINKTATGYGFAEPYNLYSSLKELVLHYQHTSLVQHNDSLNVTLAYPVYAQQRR

As to “4-((5-(4-Amino-6-Methyl-1,3,5-Triazin-2-yl)-6-(5-Fluoro-6-Methoxypyridin-3-Ylaamino)Pyridin-3-yl)Methyl)-N-Methyl-N-(2,2,2-Trifluoroethyl)Piperazine-1-Carboxamide [Example 358]”, the Ki in test [1] turned out to be 24 nM. For the same compound, the IC50 in test [2] is 121 nM.

As for `COc1ccc(Nc2ncc([C@@H](O)C(F)(F)F)cc2-c2nc(C)nc(N)n2)cn1.COc1ccc(Nc2ncc([C@H](O)C(F)(F)F)cc2-c2nc(C)nc(N)n2)cn1` (racemic) [Example 269, (R,S)-1-(5-(4-Amino-6-Methyl-1,3,5-Triazin-2-yl)-6-(6-Methoxypyridin-3-Ylamino)Pyridin-3-yl)-2,2,2-Trifluoroethanol], the Ki in test [1] was 33 nM. In test [2] (pAkt (Ser 473), U87 MG cells, two hours with compound), the half-maximal inhibitory concentration (IC50) stood at 89 nM.

Take `COc1ncc(Nc2ncc(C(C)CO)cc2-c2nc(C)nc(N)n2)cc1F` (single isomer, unassigned) [312 First eluting, 2-(5-(4-Amino-6-methyl-1,3,5-triazin-2-yl)-6-(5-fluoro-6-methoxypyridin-3-ylamino)pyridin-3-yl)propan-1-ol]: in test [3], the Ki came to 9 nM.

Take `COc1ncc(Nc2ncc(C(C)CO)cc2-c2nc(C)nc(N)n2)cc1F` (single isomer, unassigned) [312 Second eluting, 2-(5-(4-Amino-6-methyl-1,3,5-triazin-2-yl)-6-(5-fluoro-6-methoxypyridin-3-ylamino)pyridin-3-yl)propan-1-ol]: the affinity in test [3] corresponds to a Ki of 7 nM.

On to `Cc1cnc(Nc2cccnc2)c(-c2nc(C)nc(N)n2)c1` [Example 32, Methyl-6-(5-Methyl-2-(Pyridin-3-Ylamino)Pyridin-3-yl)-1,3,5-Triazin-2-Amine], for which the Ki in test [1] came to 191 nM. Moreover, the IC50 in test [4] was determined as 587 nM. Besides, in test [5], the “Mutant B-raf HTRF Assay POC Mean n = 2” value is given as 107% of Control (POC).

Consider `Cc1nc(N)nc(-c2cccnc2Nc2ccc(N)nc2)n1` [Example 50, N5-(3-(4-Amino-6-Methyl-1,3,5-Triazin-2-yl)Pyridin-2-yl)Pyridine-2,5-Diamine], for which the Ki in test [1] came out at 1330 nM. Moreover, in test [4], the IC50 worked out at 3070 nM. Further, the “Mutant B-raf HTRF Assay POC Mean n = 2” value in test [5] is given as 87% of Control (POC).

In the case of `Cc1nc(-c2cc(Cl)cnc2Nc2cccc3[nH]ncc23)c2nc[nH]c2n1` [Example 61, N-(5-Chloro-3-(2-methyl-9H-purin-6-yl)pyridin-2-yl)-1H-indazol-4-amine], the Ki in test [1] turned out to be 720 nM. Moreover, the IC50 in test [4] was 3630 nM. In test [5], the “Mutant B-raf HTRF Assay POC Mean n = 2” value was 66% of Control (POC).

For the compound `Cc1nc(-c2cc(Br)cnc2Nc2cccc3[nH]ncc23)c2nc[nH]c2n1` [Example 64, N-(5-bromo-3-(2-methyl-9H-purin-6-yl)pyridin-2-yl)-1H-indazol-4-amine], the Ki in test [1] was 50 nM. Besides, the IC50 in test [4] was above 10000 nM. Also, the “Mutant B-raf HTRF Assay POC Mean n = 2” value in test [5] is 107% of Control (POC).

Take `COc1ncc(Nc2ncccc2-c2nc(C)nc3[nH]cnc23)cn1` [Example 66, 2-Methoxy-N-(3-(2-Methyl-9H-Purin-6-yl)Pyridin-2-yl)Pyrimidin-5-Amine]: in test [1], the Ki came out at 62 nM. In test [4], the IC50 came to 173 nM. The “Mutant B-raf HTRF Assay POC Mean n = 2” value in test [5] was 103% of Control (POC).

Turning to `COc1ccc(COCc2cnc(Nc3cccc4[nH]ccc34)c(-c3nc(C)nc4[nH]cnc34)c2)cc1` [Example 71, N-(5-((4-methoxybenzyloxy)methyl)-3-(2-methyl-9H-purin-6-yl)pyridin-2-yl)-1H-indol-4-amine], the Ki in test [1] came to 402 nM. In addition, the IC50 in test [4] worked out at 1190 nM. The “Mutant B-raf HTRF Assay POC Mean n = 2” value in test [5] is listed as 75% of Control (POC).

As to `Cc1nc(-c2cc(CO)cnc2Nc2cccc3[nH]ncc23)c2nc[nH]c2n1` [Example 72, (6-(1H-indazol-4-ylamino)-5-(2-methyl-9H-purin-6-yl)pyridin-3-yl)methanol], the Ki in test [1] was 33 nM. In test [4], the IC50 is 8530 nM. Besides, in test [5], the “Mutant B-raf HTRF Assay POC Mean n = 2” value is listed as 77% of Control (POC).

Regarding `COc1ccc(Nc2ncc(CCO)cc2-c2nc(C)nc3[nH]cnc23)cn1` [Example 75, 2-(6-(6-methoxypyridin-3-ylamino)-5-(2-methyl-9H-purin-6-yl)pyridin-3-yl)ethanol], in test [1], the Ki was 23 nM. Further, the IC50 in test [4] worked out at 179 nM. In addition, the “Mutant B-raf HTRF Assay POC Mean n = 2” value in test [5] is on record as 94% of Control (POC).

On to `COc1ccc(Nc2ncc(CO)cc2-c2nc(C)nc3[nH]cnc23)cn1` [Example 76, (6-(6-Methoxypyridin-3-Ylamino)-5-(2-Methyl-9H-Purin-6-yl)Pyridin-3-yl)Methanol], for which, in test [1], the Ki is 44 nM. Besides, in test [4], the IC50 came out at 195 nM. In test [5], the “Mutant B-raf HTRF Assay POC Mean n = 2” value is 108% of Control (POC).

In the case of `COc1ccc(Nc2ncc(CN3CCNCC3)cc2-c2nc(C)nc3[nH]cnc23)cn1` [Example 84, N-(6-methoxypyridin-3-yl)-3-(2-methyl-9H-purin-6-yl)-5-(piperazin-1-ylmethyl)pyridin-2-amine], the Ki in test [1] is 97 nM. In addition, the IC50 in test [4] turned out to be 1910 nM. Further, in test [5], the “Mutant B-raf HTRF Assay POC Mean n = 2” value is reported as 97% of Control (POC).

Turning to `COc1ccc(Nc2ncc(CN3CCN(S(C)(=O)=O)CC3)cc2-c2nc(C)nc3[nH]cnc23)cn1` [Example 85, N-(6-methoxypyridin-3-yl)-3-(2-methyl-9H-purin-6-yl)-5-((4-(methylsulfonyl)piperazin-1-yl)methyl)pyridin-2-amine], the Ki in test [1] worked out at 19 nM. Further, the IC50 in test [4] came to 133 nM. The “Mutant B-raf HTRF Assay POC Mean n = 2” value in test [5] is on record as 90% of Control (POC).

As to `COc1ccc(Nc2cnc(Nc3ccc(OC)nc3)c(-c3nc(C)nc4[nH]cnc34)c2)cc1` [Example 90, N5-(4-methoxyphenyl)-N2-(6-methoxypyridin-3-yl)-3-(2-methyl-9H-purin-6-yl)pyridine-2,5-diamine], in test [1], the Ki was determined as 9 nM. In test [4], the IC50 amounted to 129 nM. For the same compound, the “Mutant B-raf HTRF Assay POC Mean n = 2” value in test [5] is 99% of Control (POC).

`COc1ccc(Nc2ncc(N3CCOCC3)cc2-c2nc(C)nc3[nH]cnc23)cn1` [Example 97]: in test [1], the Ki was found to be 107 nM. Besides, the IC50 in test [4] is 441 nM. Moreover, the “Mutant B-raf HTRF Assay POC Mean n = 2” value in test [5] is recorded as 96% of Control (POC).

As for `Cc1nc(N)cc(-c2cnccc2Nc2cccc3[nH]ncc23)n1` [Example 107, N-(3-(6-amino-2-methylpyrimidin-4-yl)pyridin-4-yl)-1H-indazol-4-amine], in test [1], the Ki stood at 359 nM. Besides, the IC50 in test [4] was 1540 nM. The “Mutant B-raf HTRF Assay POC Mean n = 2” value in test [5] was 62% of Control (POC).

In turn, `COc1ccc(Nc2ncc([C@@H](O)C(C)(C)C)cc2-c2nc(C)nc3c2ncn3C2CCCCO2)cn1` (stereo partly drawn) [Example 132, (1S)-1-(6-(6-Methoxypyridin-3-Ylamino)-5-(2-Methyl-9-(Tetrahydro-2H-Pyran-2-yl)-9H-Purin-6-yl)Pyridin-3-yl)-2,2-Dimethylpropan-1-ol] gave a Ki in test [3] of 12 nM. Moreover, the IC50 in test [4] amounted to 147 nM.

As to `COc1ccc(Nc2ncc([C@H](O)C(C)(C)C)cc2-c2nc(C)nc3c2ncn3C2CCCCO2)cn1` (stereo partly drawn) [Example 133, (1R)-1-(6-(6-Methoxypyridin-3-Ylamino)-5-(2-Methyl-9-(Tetrahydro-2H-Pyran-2-yl)-9H-Purin-6-yl)Pyridin-3-yl)-2,2-Dimethylpropan-1-ol], in test [3], affinity was put at a Ki of 31 nM. Also, the IC50 in test [4] came out at 278 nM.

Turning to `COc1ccc(Nc2ncc(CN3CCN(C(=O)N(C)C4CC4)CC3)cc2-c2nc(C)nc(N)n2)cn1` [Example 359, 4-((5-(4-Amino-6-Methyl-1,3,5-Triazin-2-yl)-6-(6-Methoxypyridin-3-Ylamino)Pyridin-3-yl)Methyl)-N-Cyclopropyl-N-Methylpiperazine-1-Carboxamide], the Ki in test [3] is 45 nM. Also, in test [4], the IC50 is 90 nM.
